In patent publication US20080286235A1, “Antimicrobials and related methods” (priority 2006, published 2008):
Values after ≈ are worked out from the molar mass of the structure shown.

Experiments:
[1] = test system: C3H/10T1/2 mouse embryo fibroblasts; settings: for Highest Non-Cytotoxic Concentration: mouse; for LC50 value (reduces the plating efficiency to 50% of control cells) / CC50: 10T1/2 cells; for CC50: read-out: LC50 value
[2] = in vitro; settings: mouse
[3] = test system: ringworm; test: Cat ringworm treatment; type: in vivo, kittens; settings: Solution A 1:16 topically three times daily for three days

Structure (SMILES) | Highest Non-Cytotoxic Concentration [1] [mg/mL] | CC50 [2] [µg/mL] | also measured
CC(=O)Nc1ccc(O)cc1 [Acetaminophen] | 0.05 | 500 (≈ 3310 µM) | –
CC(=O)Oc1ccccc1C(=O)O [Aspirin] | 0.25 | – | –
OC1c2cc3ccc4cccc5ccc(c2C2OC2C1O)c3c45 (stereo not drawn) [BaP-anti-diol epoxide] | – | – | LC50 value (reduces the plating efficiency to 50% of control cells) [1]: 0.0755 µg/mL; CC50 [1]: 0.25 µM
COC(=O)Nc1nc2cc(C(=O)c3ccc(F)cc3)ccc2[nH]1 [Flubendazole] | – | 0.15 (≈ 0.479 µM) | –
COC1=CC(=O)C[C@@H](C)[C@]12Oc1c(Cl)c(OC)cc(OC)c1C2=O [Griseofulvin] | – | – | outcome of ringworm treatment [3]: no success
CC(=O)ON(C(C)=O)c1ccc2c(c1)Cc1ccccc1-2 [N-acetoxy-acetyl aminofluorene] | – | – | LC50 value (reduces the plating efficiency to 50% of control cells) [1]: 3.99 µg/mL; CC50 [1]: 15 µM
C[C@@H]1O[C@@H](O[C@H]2C[C@@H](O)[C@]3(CO)[C@H]4[C@H](O)C[C@]5(C)[C@@H](C6=CC(=O)OC6)CC[C@]5(O)[C@@H]4CC[C@]3(O)C2)[C@H](O)[C@H](O)[C@H]1O [Ouabain] | – | 500 (≈ 855 µM) | –
CCOc1ccc(NC(C)=O)cc1 [Phenacetin] | 0.18 | 1000 (≈ 5580 µM) | –
